From patent publication US9006173B2, “Microcystins as agents for treatment of cancer” (priority 2006, dated 2015)
Read-outs that look alike come from different tables or passages of the source. Numbered stars: 1 amine (or outer) side, 2 acyl side, 3 side chain; on linkers, the order of the positions; unused ones are H or OH. Bridge positions count the residues as written; N and C are the ends. Square brackets hold non-standard residues; d marks the D form. Peptide text beside a SMILES is read from it. Adda = CO[C@@H](Cc1ccccc1)[C@@H](C)/C=C(C)/C=C/[C@H](N[*:1])[C@H](C)C(=O)[*:2]; dAsp(3S-Me) = C[C@H](C(=O)[*:3])[C@@H](N[*:1])C(=O)[*:2]; d(γGlu) = O=C(O)[C@@H](CCC(=O)[*:2])N[*:1]; NMeDha = C=C(NC)C(=O)O

Columns and labels:
[1] = tested on: OATP1B3-transfected HeLa cells
[2] = tested on: pIRESneo2 (control plasmid) transfected HeLa cells; assay: cells; format: cell-based
[3] = tested on: OATP1B1-transfected HeLa cells
[4] = set-up: species or system athymic nude mice; conditions: mouse, in vivo, ip
[5] = tested on: total phosphatase activity in OATP1B1-transfected HeLa cells; format: cell-based
[6] = biological target: PP1 (Homo sapiens, UniProt P62136); conditions: read-out: Reported Ki PP1; cited from earlier work
[7] = tested on: pIRESneo2 transfected HeLa cells; format: cell-based
[8] = tested on: HeLa cells transfected with pIRESneo2; format: cell-based
[9] = mouse, in vivo; cited from earlier work
[10] = biological target: PP2A (Homo sapiens, UniProt P67775); conditions: cited from earlier work
[11] = tested on: OATP1B1-expressing HeLa xenografts; set-up: species or system athymic nude mice; conditions: mouse, in vivo, ip
[12] = tested on: OATP1B1 transfected HeLa cells; format: cell-based
[13] = tested on: total phosphatase activity in OATP1B3-transfected HeLa cells; format: cell-based
[14] = biological target: T1, purified PP2A (Homo sapiens, UniProt P67775); assay: biochemical; conditions: [33P]-MyBP substrate, 10 min pre-incubation, mean±SD; read-out: Enzyme Inhibition PP2A IC50
T1 construct: purchased Upstate Cell Signaling Solutions, NY

[15] = tested on: OATP1B1; assay: in vitro; conditions: human
[16] = biological target: purified PP1 (Oryctolagus cuniculus, UniProt P62139); assay: biochemical
[17] = tested on: OATP1B3; assay: in vitro; conditions: human
[18] = read-out: Growth Inhibition OATP1B3 IC50
[19] = read-out: Growth Inhibition pIRESneo2 IC50
[20] = read-out: Growth Inhibition OATP1B1 IC50
[21] = read-out: Growth inhibition: toxicity not reached / no cytotoxicity up to stated concentration in control cells

Chain of PP2A (P67775 whole entry): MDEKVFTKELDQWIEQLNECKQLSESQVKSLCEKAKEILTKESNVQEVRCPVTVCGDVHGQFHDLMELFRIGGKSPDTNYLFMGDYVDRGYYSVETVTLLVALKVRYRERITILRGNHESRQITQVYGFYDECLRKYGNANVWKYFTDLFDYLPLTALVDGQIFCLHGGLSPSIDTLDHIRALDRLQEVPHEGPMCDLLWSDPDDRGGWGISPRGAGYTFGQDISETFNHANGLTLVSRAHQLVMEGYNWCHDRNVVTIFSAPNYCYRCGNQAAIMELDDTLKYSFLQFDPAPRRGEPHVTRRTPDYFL
T1 sequence (P67775 whole entry): as above
T1 sequence (P30153 2-589, further chain): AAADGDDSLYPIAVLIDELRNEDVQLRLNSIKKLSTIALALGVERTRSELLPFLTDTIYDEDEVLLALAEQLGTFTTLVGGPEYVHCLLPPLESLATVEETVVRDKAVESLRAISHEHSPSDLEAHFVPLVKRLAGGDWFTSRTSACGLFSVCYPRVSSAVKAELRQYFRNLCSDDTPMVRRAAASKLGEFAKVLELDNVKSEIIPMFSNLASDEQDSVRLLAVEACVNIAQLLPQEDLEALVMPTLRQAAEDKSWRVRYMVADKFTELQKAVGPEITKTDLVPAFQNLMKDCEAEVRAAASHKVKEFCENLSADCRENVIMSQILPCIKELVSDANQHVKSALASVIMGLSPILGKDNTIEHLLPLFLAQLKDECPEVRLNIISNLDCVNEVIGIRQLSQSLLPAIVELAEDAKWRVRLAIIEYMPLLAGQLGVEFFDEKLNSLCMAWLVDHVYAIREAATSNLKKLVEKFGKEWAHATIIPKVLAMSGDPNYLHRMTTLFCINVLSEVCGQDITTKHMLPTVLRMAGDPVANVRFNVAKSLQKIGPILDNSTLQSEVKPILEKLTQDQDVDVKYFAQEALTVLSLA
Chain of purified PP1 (P62139 whole entry): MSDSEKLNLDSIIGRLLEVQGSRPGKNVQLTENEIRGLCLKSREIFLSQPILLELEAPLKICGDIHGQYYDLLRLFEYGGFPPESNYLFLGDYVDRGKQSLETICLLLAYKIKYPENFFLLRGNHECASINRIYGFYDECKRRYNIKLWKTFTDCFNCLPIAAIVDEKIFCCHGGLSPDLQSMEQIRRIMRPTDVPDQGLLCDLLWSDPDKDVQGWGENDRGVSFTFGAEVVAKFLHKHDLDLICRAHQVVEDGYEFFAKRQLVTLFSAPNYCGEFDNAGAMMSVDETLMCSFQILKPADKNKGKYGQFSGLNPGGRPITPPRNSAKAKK
Chain of PP1 (P62136 whole entry): as the sequence (P62139 whole entry) above

C=C1C(=O)N[C@H](C)C(=O)N[C@@H](Cc2ccc(O)cc2)C(=O)N[C@@H](C(=O)O)[C@H](C)C(=O)N[C@@H](CCCNC(=N)N)C(=O)N[C@@H](/C=C/C(C)=C/[C@H](C)[C@H](Cc2ccccc2)OC)[C@H](C)C(=O)N[C@@H](C(=O)O)CCC(=O)N1C [Microcystin YR, microcystin YR] (R[Adda][d(γGlu)][NMeDha][dA]Y[dAsp(3S-Me)]-OH; lactam N-7)
IC50 [1, 18]: 45 ± 30 nM
IC50 [2, 19]: > 1000 nM
IC50 [3, 20]: 90 ± 20 nM

C=C1C(=O)N[C@H](C)C(=O)N[C@@H](CC(C)C)C(=O)N[C@@H](C(=O)O)[C@H](C)C(=O)N[C@@H](CCCNC(=N)N)C(=O)N[C@@H](/C=C/C(C)=C/[C@H](C)[C@H](Cc2ccccc2)OC)[C@H](C)C(=O)N[C@@H](C(=O)O)CCC(=O)N1C [Microcystin LR, microcystin LR] (R[Adda][d(γGlu)][NMeDha][dA]L[dAsp(3S-Me)]-OH; lactam N-7)
Body weight day 0, daily cohort [4]: 22.8±2.7 grams
Body weight day 0, every other day cohort [4]: 21.6±0.8 grams
Body weight day 18, daily cohort [4]: 19.0±1.2 grams
Body weight day 18, every other day cohort [4]: 22.3±2.4 grams
Decrease of total phosphatase activity [5]: approximately 30%
IC50 [1, 18]: 39 nM
IC50 ([1]; read-out: Growth inhibition IC50 in presence of BSP, OATP1B3): ~5000 nM
IC50 [2, 19]: > 10000 nM
IC50 [2, 21]: > 10000 nM
Ki [6]: 0.06 to 6 nM
Cell and nuclear morphology changes [7]: no changes in cellular morphology
Clonogenic assay toxicity in vector alone cells [8]: no toxicity
Share of total dose accumulating in the liver [9]: 70%
Ki ([10]; read-out: Reported Ki PP2A): 0.01 to 2 nM
Average tumor volume, % of control [11]: 49 % of control
Growth inhibition activity after 1 hour exposure [3]: less active
IC50 [3, 20]: 5 nM
IC50 ([3]; read-out: Growth inhibition IC50 in presence of BSP, OATP1B1): ~5000 nM
Cell and nuclear morphology changes [12]: membrane blebbing

C=C1C(=O)N[C@H](C)C(=O)N[C@@H](CC(C)C)C(=O)N[C@@H](C(=O)O)[C@H](C)C(=O)N[C@@H](Cc2c[nH]c3ccccc23)C(=O)N[C@@H](/C=C/C(C)=C/[C@H](C)[C@H](Cc2ccccc2)OC)[C@H](C)C(=O)N[C@@H](C(=O)O)CCC(=O)N1C [Microcystin LW, microcystin LW] (W[Adda][d(γGlu)][NMeDha][dA]L[dAsp(3S-Me)]-OH; lactam N-7)
IC50 [1, 18]: 0.5 ± 0.4 nM
IC50 [2, 19]: > 1000 nM
Effect on total phosphatase activity [13]: no discernable effect

C=C1[C@@H](O)[C@@H]2O[C@]3(CC[C@H](/C=C/[C@@H](C)[C@@H]4CC(C)=C[C@@]5(O[C@H](C[C@@](C)(O)C(=O)O)CC[C@H]5O)O4)O3)CC[C@H]2O[C@@H]1[C@@H](O)C[C@H](C)[C@H]1O[C@@]2(CCCCO2)CC[C@H]1C [Okadaic acid]
IC50 [14]: 0.4 ± 0.18 nM
IC50 [15]: 2.2 ± 0.6 nM
IC50 [16]: 90 ± 17 nM
IC50 ([2]; Homo sapiens, HeLa, 72 h exposure, SRB dye assay, mean±SD, read-out: Growth Inhibition pIRESneo2 IC50): 7.8 ± 1.5 nM
IC50 ([10]; literature (18), read-out: Reported IC50 PP2A): 15 to 70 nM
IC50 [17]: 3 ± 1.2 nM

C=C1C(=O)N[C@H](C)C(=O)N[C@@H](CCCNC(=N)N)C(=O)N[C@@H](C(=O)O)[C@H](C)C(=O)N[C@@H](CCCNC(=N)N)C(=O)N[C@@H](/C=C/C(C)=C/[C@H](C)[C@H](Cc2ccccc2)OC)[C@H](C)C(=O)N[C@@H](C(=O)O)CCC(=O)N1C [Microcystin RR, microcystin RR] (R[Adda][d(γGlu)][NMeDha][dA]R[dAsp(3S-Me)]-OH; lactam N-7)
IC50 ([1]; read-out: Growth inhibition IC50 OATP1B3): 580 ± 400 nM
IC50 [2, 19]: > 10000 nM
IC50 [2, 21]: > 10000 nM
Decrease of total phosphatase activity [13]: 90%
IC50 ([3]; read-out: Growth inhibition IC50 OATP1B1): 3800 ± 2300 nM

C=C1C(=O)N[C@H](C)C(=O)N[C@@H](CC(C)C)C(=O)N[C@@H](C(=O)O)[C@H](C)C(=O)N[C@@H](Cc2ccccc2)C(=O)N[C@@H](/C=C/C(C)=C/[C@H](C)[C@H](Cc2ccccc2)OC)[C@H](C)C(=O)N[C@@H](C(=O)O)CCC(=O)N1C [Microcystin LF, microcystin LF] (F[Adda][d(γGlu)][NMeDha][dA]L[dAsp(3S-Me)]-OH; lactam N-7)
IC50 [1, 18]: 0.9 ± 0.9 nM
IC50 [2, 19]: > 1000 nM
Effect on total phosphatase activity [13]: no discernable effect
